From ChEMBL document CHEMBL1159187, “Novel polyamine derivatives as potent competitive inhibitors of Trypanosoma cruzi trypanothione reductase” (Bioorg Med Chem Lett, 1995)
Calls of active or inactive are those of the source. No cut-off for these calls is given here.

Tests used:
[1] = molecular target: Glutathione reductase (Saccharomyces cerevisiae) (UniProt P41921); experiment: Compound was evaluated for the competitive inhibition of glutathione reductase from yeast; No inhibition
Trypanothione reductase = Trypanothione reductase (Trypanosoma cruzi, UniProt P28593); experiment: Compound was evaluated for the competitive inhibition of trypanothione reduction by recombinant Trypanothione reductase from Trypanosoma cruzi
Chain of Trypanothione reductase (P28593 whole entry): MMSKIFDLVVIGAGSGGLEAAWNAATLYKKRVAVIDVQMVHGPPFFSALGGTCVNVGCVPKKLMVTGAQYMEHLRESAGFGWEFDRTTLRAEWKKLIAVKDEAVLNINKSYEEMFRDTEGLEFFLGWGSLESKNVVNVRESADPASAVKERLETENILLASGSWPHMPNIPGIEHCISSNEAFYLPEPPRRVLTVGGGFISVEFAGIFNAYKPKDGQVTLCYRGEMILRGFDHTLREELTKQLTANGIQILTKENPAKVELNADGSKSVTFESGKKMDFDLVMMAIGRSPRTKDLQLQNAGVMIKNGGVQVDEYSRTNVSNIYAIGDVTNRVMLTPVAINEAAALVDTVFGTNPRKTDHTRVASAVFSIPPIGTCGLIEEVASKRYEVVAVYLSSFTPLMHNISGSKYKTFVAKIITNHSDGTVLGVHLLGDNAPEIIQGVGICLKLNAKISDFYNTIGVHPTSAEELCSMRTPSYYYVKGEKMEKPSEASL

Chain of Glutathione reductase (Saccharomyces cerevisiae) (P41921 whole entry, looked up): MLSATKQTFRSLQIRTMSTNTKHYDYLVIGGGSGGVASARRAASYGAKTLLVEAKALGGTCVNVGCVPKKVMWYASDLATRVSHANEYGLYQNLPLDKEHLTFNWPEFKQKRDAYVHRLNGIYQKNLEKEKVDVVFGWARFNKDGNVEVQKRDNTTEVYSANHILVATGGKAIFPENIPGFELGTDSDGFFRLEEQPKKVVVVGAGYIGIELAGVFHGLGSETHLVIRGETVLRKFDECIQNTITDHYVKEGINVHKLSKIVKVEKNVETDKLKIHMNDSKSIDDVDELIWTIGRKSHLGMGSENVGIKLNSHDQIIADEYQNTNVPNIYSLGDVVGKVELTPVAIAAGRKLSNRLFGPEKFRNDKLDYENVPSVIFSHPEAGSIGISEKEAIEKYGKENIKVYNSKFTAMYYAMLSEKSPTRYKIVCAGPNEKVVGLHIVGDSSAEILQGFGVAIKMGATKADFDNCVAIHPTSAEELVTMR

Row | Activity [1] | Ki (Trypanothione reductase) [µM] | Compound
1 | inactive | 9.5 | c1ccc2cc(CNCCCCNCCCNCc3ccc4ccccc4c3)ccc2c1
2 |  | 108 | NCCCCN(CCCN)Cc1ccc2ccccc2c1
3 |  | > 2000 | O=C(NCCCCNCCCNC(=O)c1ccccc1)c1ccccc1
4 |  | 19 | NCCCN(CCCCN(CCCN)Cc1ccccc1)Cc1ccccc1
5 |  | 280 | NCCCCN(CCCN)C(=O)OCc1ccccc1
6 | inactive | 3.5 | NCCCN(CCCCN(CCCN)CCCc1ccccc1)CCCc1ccccc1
7 | inactive | 5.5 | NCCCN(CCCCN(CCCN)Cc1ccc2ccccc2c1)Cc1ccc2ccccc2c1
